Test results reported in PubChem BioAssay (NCI).
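96-well plates; 48 h exposure; 5 concentrations. Endpoints by linear interpolation between flanking doses. Not reached: highest tested concentration assigned. Here, GI50 denotes the concentration required for 50% inhibition of growth. At the TGI there is no net growth.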

Tests used:
Test in all cases: NCI anticancer screen, dose series, 48 h
HOP-92 NSCLC = tested on: HOP-92 NSCLC
SNB-19 CNS = tested on: SNB-19 CNS
HCC-2998 colon = tested on: HCC-2998 colon
U251 CNS = tested on: U251 CNS
CCRF-CEM leukemia = tested on: CCRF-CEM leukemia
MALME-3M melanoma = tested on: MALME-3M melanoma
HCT-15 colon = tested on: HCT-15 colon
CAKI-1 renal = tested on: CAKI-1 renal
NCI/ADR-RES ovarian = tested on: NCI/ADR-RES ovarian
TK-10 renal = tested on: TK-10 renal
SNB-75 CNS = tested on: SNB-75 CNS
UO-31 renal = tested on: UO-31 renal
SN12C renal = tested on: SN12C renal
MDA-MB-468 breast = tested on: MDA-MB-468 breast
K-562 leukemia = tested on: K-562 leukemia
LOX IMVI melanoma = tested on: LOX IMVI melanoma
SK-OV-3 ovarian = tested on: SK-OV-3 ovarian
UACC-62 melanoma = tested on: UACC-62 melanoma
MDA-MB-435 = tested on: MDA-MB-435
MOLT-4 leukemia = tested on: MOLT-4 leukemia
MDA-MB-231 breast = tested on: MDA-MB-231 breast
T-47D breast = tested on: T-47D breast
HCT-116 colon = tested on: HCT-116 colon
HS 578T breast = tested on: HS 578T breast
ACHN renal = tested on: ACHN renal
NCI-H522 lung = tested on: NCI-H522 lung
DU-145 prostate = tested on: DU-145 prostate
SF-268 CNS = tested on: SF-268 CNS
786-0 renal = tested on: 786-0 renal
SR leukemia = tested on: SR leukemia
OVCAR-8 ovarian = tested on: OVCAR-8 ovarian
EKVX NSCLC = tested on: EKVX NSCLC
A498 renal = tested on: A498 renal
SK-MEL-2 melanoma = tested on: SK-MEL-2 melanoma
BT-549 breast = tested on: BT-549 breast
MCF7 breast = tested on: MCF7 breast
HL-60(TB) leukemia = tested on: HL-60(TB) leukemia
NCI-H226 lung = tested on: NCI-H226 lung
SF-295 CNS = tested on: SF-295 CNS
SK-MEL-28 melanoma = tested on: SK-MEL-28 melanoma
IGROV1 ovarian = tested on: IGROV1 ovarian
OVCAR-3 ovarian = tested on: OVCAR-3 ovarian
HOP-62 NSCLC = tested on: HOP-62 NSCLC
SW-620 colon = tested on: SW-620 colon
UACC-257 melanoma = tested on: UACC-257 melanoma
RPMI-8226 leukemia = tested on: RPMI-8226 leukemia
A549 NSCLC = tested on: A549 NSCLC
SK-MEL-5 melanoma = tested on: SK-MEL-5 melanoma
SF-539 CNS = tested on: SF-539 CNS
PC-3 prostate = tested on: PC-3 prostate
KM12 colon = tested on: KM12 colon
M14 melanoma = tested on: M14 melanoma
RXF 393 renal = tested on: RXF 393 renal
COLO 205 colon = tested on: COLO 205 colon
NCI-H23 lung = tested on: NCI-H23 lung

`Cc1noc2c(Cc3ccccc3)nn(CC(=O)N/N=C/c3ccc(Br)cc3)c(=O)c12` showed a GI50 (HOP-92 NSCLC) of 4.3 µM, a TGI (HOP-92 NSCLC) of 21.5 µM and a GI50 (SNB-19 CNS) of 13.3 µM. The TGI (SNB-19 CNS) was 30.2 µM, the GI50 (HCC-2998 colon) was greater than 100 µM and the TGI (HCC-2998 colon) was greater than 100 µM. The GI50 (U251 CNS) was 3.48 µM, the TGI (U251 CNS) was 30 µM and the GI50 (CCRF-CEM leukemia) was 30.5 µM. It also gave a TGI (CCRF-CEM leukemia) greater than 100 µM, a GI50 (MALME-3M melanoma) of 14.5 µM and a TGI (MALME-3M melanoma) of 44.3 µM. It also gave a GI50 (HCT-15 colon) greater than 100 µM, a TGI (HCT-15 colon) greater than 100 µM and a GI50 (CAKI-1 renal) of 5.6 µM. For the same compound, the TGI (CAKI-1 renal) was 25.2 µM, the GI50 (NCI/ADR-RES ovarian) was 5.64 µM and the TGI (NCI/ADR-RES ovarian) was greater than 100 µM. For the same compound, the GI50 (TK-10 renal) was 3.01 µM, the TGI (TK-10 renal) was 9.71 µM and the GI50 (SNB-75 CNS) was 1.74 µM. For the same compound, the TGI (SNB-75 CNS) was 6.96 µM, the GI50 (UO-31 renal) was 1.91 µM and the TGI (UO-31 renal) was 4.67 µM. The GI50 (SN12C renal) was 3.27 µM, the TGI (SN12C renal) was greater than 100 µM and the GI50 (MDA-MB-468 breast) was 9.61 µM. For the same compound, the TGI (MDA-MB-468 breast) was 35.9 µM, the GI50 (K-562 leukemia) was 25.7 µM and the TGI (K-562 leukemia) was greater than 100 µM. For the same compound, the GI50 (LOX IMVI melanoma) was 8.98 µM, the TGI (LOX IMVI melanoma) was greater than 100 µM and the GI50 (SK-OV-3 ovarian) was 3.19 µM. It also gave a TGI (SK-OV-3 ovarian) of 9.49 µM, a GI50 (UACC-62 melanoma) of 13.2 µM and a TGI (UACC-62 melanoma) of 49.6 µM. The GI50 (MDA-MB-435) was greater than 100 µM, the TGI (MDA-MB-435) was greater than 100 µM and the GI50 (MOLT-4 leukemia) was 50.6 µM. The TGI (MOLT-4 leukemia) was greater than 100 µM, the GI50 (MDA-MB-231 breast) was 3.34 µM and the TGI (MDA-MB-231 breast) was 12.7 µM. It also gave a GI50 (T-47D breast) of 1.96 µM, a TGI (T-47D breast) of 5.46 µM and a GI50 (HCT-116 colon) of 3.31 µM. The TGI (HCT-116 colon) was 17.7 µM, the GI50 (HS 578T breast) was 3.06 µM and the TGI (HS 578T breast) was 17.7 µM. For the same compound, the GI50 (ACHN renal) was 2.71 µM, the TGI (ACHN renal) was 6.91 µM and the GI50 (NCI-H522 lung) was 12.9 µM. For the same compound, the TGI (NCI-H522 lung) was 88.1 µM, the GI50 (DU-145 prostate) was 76.2 µM and the TGI (DU-145 prostate) was greater than 100 µM. The GI50 (SF-268 CNS) was 22.8 µM, the TGI (SF-268 CNS) was greater than 100 µM and the GI50 (786-0 renal) was 1.89 µM. For the same compound, the TGI (786-0 renal) was 4.17 µM, the GI50 (SR leukemia) was 14.7 µM and the TGI (SR leukemia) was greater than 100 µM. For the same compound, the GI50 (OVCAR-8 ovarian) was 4.62 µM, the TGI (OVCAR-8 ovarian) was greater than 100 µM and the GI50 (EKVX NSCLC) was 31.3 µM. The TGI (EKVX NSCLC) was greater than 100 µM, the GI50 (A498 renal) was 1.73 µM and the TGI (A498 renal) was 3.34 µM. The GI50 (SK-MEL-2 melanoma) was 17.5 µM, the TGI (SK-MEL-2 melanoma) was 33.7 µM and the GI50 (BT-549 breast) was 17.7 µM. For the same compound, the TGI (BT-549 breast) was 49.4 µM, the GI50 (MCF7 breast) was 77 µM and the TGI (MCF7 breast) was greater than 100 µM. For the same compound, the GI50 (HL-60(TB) leukemia) was greater than 100 µM, the TGI (HL-60(TB) leukemia) was greater than 100 µM and the GI50 (NCI-H226 lung) was 2.33 µM. For the same compound, the TGI (NCI-H226 lung) was 6.11 µM, the GI50 (SF-295 CNS) was 5.79 µM and the TGI (SF-295 CNS) was 21.1 µM. For the same compound, the GI50 (SK-MEL-28 melanoma) was greater than 100 µM, the TGI (SK-MEL-28 melanoma) was greater than 100 µM and the GI50 (IGROV1 ovarian) was 13.5 µM. The TGI (IGROV1 ovarian) was 38.7 µM, the GI50 (OVCAR-3 ovarian) was 3.36 µM and the TGI (OVCAR-3 ovarian) was greater than 100 µM. It also gave a GI50 (HOP-62 NSCLC) of 3.37 µM, a TGI (HOP-62 NSCLC) of 13.1 µM and a GI50 (SW-620 colon) greater than 100 µM. It also gave a TGI (SW-620 colon) greater than 100 µM, a GI50 (UACC-257 melanoma) greater than 100 µM and a TGI (UACC-257 melanoma) greater than 100 µM. The GI50 (RPMI-8226 leukemia) was 29.1 µM, the TGI (RPMI-8226 leukemia) was greater than 100 µM and the GI50 (A549 NSCLC) was 6.34 µM. The TGI (A549 NSCLC) was greater than 100 µM, the GI50 (SK-MEL-5 melanoma) was 28.4 µM and the TGI (SK-MEL-5 melanoma) was greater than 100 µM. It also gave a GI50 (SF-539 CNS) of 15.8 µM, a TGI (SF-539 CNS) of 36.8 µM and a GI50 (PC-3 prostate) of 29.8 µM. It also gave a TGI (PC-3 prostate) greater than 100 µM, a GI50 (KM12 colon) greater than 100 µM and a TGI (KM12 colon) greater than 100 µM. The GI50 (M14 melanoma) was 29.8 µM, the TGI (M14 melanoma) was greater than 100 µM and the GI50 (RXF 393 renal) was 3.04 µM. For the same compound, the TGI (RXF 393 renal) was 12.6 µM, the GI50 (COLO 205 colon) was 7.46 µM and the TGI (COLO 205 colon) was greater than 100 µM. It also gave a GI50 (NCI-H23 lung) of 9.2 µM and a TGI (NCI-H23 lung) of 41.3 µM.
